Measurements from the supplement of paper PMC9763283.
Where a name gives a salt, the structure may show the parent alone.

How the values were obtained:
Test in all cases: area under growth-rate inhibition curve (AUC GRI) (dimensionless (GR-based AUC)); higher = less growth inhibition
Details in all cases: exposure time: 72 h; concentrations: 0.1, 1, 10 uM
[1] = system: SKBR3-LTR
Method in brief: (§1)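 Nuclear counts from Hoechst 33342- or DAPI-stained images were used to estimate the area under the growth-rate inhibition curve, with growth corrected by reference to untreated and DMSO-treated plates and starting plates. The six breast cancer cell line models, comprising two triple-negative lines and parental and drug-combination-resistant HER2+ lines, were treated with compound at 0.1, 1 or 10 µM for 72 h. Data came from 2 biological replicates, using Day 0 and Day 3 plates.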

[2] = system: MDA-MB-231
Method in brief: as §1

[3] = system: MDA-MB-468
Method in brief: as §1

[4] = system: BT474-P
Method in brief: as §1

[5] = system: SKBR3-P
Method in brief: as §1

[6] = system: BT474-LTR
Method in brief: as §1

| SMILES | area under growth-rate inhibition curve [1] | area under growth-rate inhibition curve [2] | area under growth-rate inhibition curve [3] | area under growth-rate inhibition curve [4] | area under growth-rate inhibition curve [5] | area under growth-rate inhibition curve [6] |
| --- | --- | --- | --- | --- | --- | --- |
| CN1CCN(C(c2ccccc2)c2ccccc2)CC1.[Cl-].[Cl-].[H+].[H+] [Cyclizine 2HCl] | 1 | 1.03 | 1.02 | 1.03 | 1.01 | 1.07 |
| CC(=O)Oc1cc2c(s1)CCN(C(C(=O)C1CC1)c1ccccc1F)C2 (stereo not given) [Prasugrel] | 1.03 | 1.03 | 1.04 | 1.05 | 1.02 | 1.13 |
| CCC1(c2c[nH]cn2)Cc2ccccc2C1 [Atipamezole hydrochloride] | 1.07 | 1.03 | 1.02 | 1.04 | 0.985 | 1.11 |
| O=C(CS(=O)Cc1ccco1)NC/C=C\COc1cc(CN2CCCCC2)ccn1 (stereo not given) [Lafutidine] | 1.06 | 1.03 | 1.02 | 1.02 | 0.987 | 1.1 |
| CN1CC(C(=O)NC2(C)OC3(O)C4CCCN4C(=O)C(Cc4ccccc4)N3C2=O)C=C2c3cccc4[nH]cc(c34)CC21 (stereo not given) [ergotamine] | 1.06 | 1.03 | 1 | 1.01 | 1.02 | 1.03 |
| CC(CCc1ccc(O)cc1)NCCc1ccc(O)c(O)c1.[Cl-].[H+] (stereo not given) [Dobutamine hydrochloride] | 1.07 | 1.02 | 1.04 | 0.992 | 1.03 | 1.01 |
| CN1CCN(C(=O)c2cc3cc(Cl)ccc3[nH]2)CC1 | 1.05 | 1.04 | 1.04 | 1.02 | 0.993 | 1.06 |
| CN(C)CCOc1ccc(/C(=C(/CCCl)c2ccccc2)c2ccccc2)cc1.O=C(O)CC(O)(CC(=O)O)C(=O)O [Toremifene Citrate] | 0.977 | 0.941 | 0.908 | 0.893 | 0.98 | 0.945 |
| CN(C)C(=O)Oc1cc(OC(=O)N(C)C)cc(C(O)CNC(C)(C)C)c1.[Cl-].[H+] (stereo not given) [Bambuterol HCl] | 1.03 | 1.04 | 1.03 | 1.06 | 1.01 | 1.09 |
| CCC(=C(c1ccc(O)cc1)c1ccc(OCCN(C)C)cc1)c1ccccc1 [4-hydroxytamoxifen] | 0.934 | 0.935 | 0.896 | 0.865 | 0.979 | 0.936 |
| CC(CCc1ccccc1)NCC(O)c1ccc(O)c(C(N)=O)c1.Cl (stereo not given) [Labetalol HCl] | 1.06 | 1.06 | 1.04 | 1.1 | 1.01 | 1.07 |
| CC12CC3CC(C)(C1)CC(N)(C3)C2.Cl [Memantine HCl] | 0.989 | 0.997 | 0.982 | 1 | 1.03 | 0.981 |
| CC(NC(C)(C)C)C(=O)c1cccc(Cl)c1 (stereo not given) [Amfebutamone HCl] | 1.03 | 0.987 | 1.01 | 1.02 | 1.01 | 1.03 |
| CN1C[C@H](C(=O)N[C@]2(C)O[C@@]3(O)[C@@H]4CCCN4C(=O)[C@H](Cc4ccccc4)N3C2=O)C[C@@H]2c3cccc4[nH]cc(c34)C[C@H]21.CS(=O)(=O)O [Dihydroergotamine mesylate] | 1.05 | 0.986 | 1.02 | 0.974 | 0.947 | 1.01 |
| CCC/N=C1\S/C(=C\c2ccc(OC[C@H](O)CO)c(Cl)c2)C(=O)N1c1ccccc1C [Ponesimod] | 1.02 | 1.01 | 1.04 | 0.996 | 0.989 | 1.04 |
| O=C1CC2(CCCC2)CC(=O)N1CCCCN1CCN(c2ncccn2)CC1.[Cl-].[H+] [Buspirone hydrochloride] | 1.03 | 1 | 1.01 | 1.01 | 1.01 | 1.02 |
| OCCN1CCN(CCCN2c3ccccc3Sc3ccc(C(F)(F)F)cc32)CC1.[Cl-].[Cl-].[H+].[H+] [Fluphenazine (dihydrochloride)] | 1.05 | 0.991 | 0.953 | 0.966 | 0.975 | 1.06 |
| CN1CCN(C2=Nc3cc(Cl)ccc3Nc3ccccc32)CC1 [Clozapine] | 1.07 | 1.04 | 1.03 | 1.06 | 1.01 | 1.09 |
| NC(N)=NCCCC(N)C(=O)NC(CCCN=C(N)N)C(=O)N1CCCC1C(=O)N1CC(O)CC1C(=O)NCC(=O)NC(Cc1cccs1)C(=O)NC(CO)C(=O)N1Cc2ccccc2CC1C(=O)N1C(C(=O)NC(CCCN=C(N)N)C(=O)O)CC2CCCCC21 (stereo not given) [HOE 140] | 1.04 | 1.01 | 1.02 | 1.03 | 1.04 | 1.06 |
| CC(=O)OCC(=O)NCCCOc1cccc(CN2CCCCC2)c1.[Cl-].[H+] [Roxatidine Acetate HCl] | 1.04 | 1.03 | 1.02 | 1.04 | 0.991 | 1.07 |
| CCCCN1CCCCC1C(=O)[NH2+]c1c(C)cccc1C.[Cl-] (stereo not given) [Bupivacaine HCl] | 1.1 | 1.04 | 1.07 | 1.1 | 1.06 | 1.12 |
| COc1cc(OC)c(NC(=O)Nc2cc(C)on2)cc1Cl | 1.06 | 1.03 | 1.02 | 0.977 | 1 | 1.05 |
| C[NH+](C)CCCN1c2ccccc2Sc2ccc(Cl)cc21.[Cl-] [Chlorpromazine Hydrochloride] | 1.02 | 0.985 | 0.989 | 1 | 0.994 | 0.991 |
| Cc1nc2n(c(=O)c1CCN1CCC(c3noc4cc(F)ccc34)CC1)CCCC2O (stereo not given) [Paliperidone] | 1.06 | 1.05 | 1.05 | 0.98 | 1.02 | 1.02 |
| C=CCC1(O)CCC2C3CCC4=CC(=O)CCC4=C3C=CC21C (stereo not given) [Altrenogest] | 1.08 | 1.03 | 1 | 0.953 | 1.04 | 1.01 |

| SMILES | area under growth-rate inhibition curve [1] | area under growth-rate inhibition curve [2] | area under growth-rate inhibition curve [3] | area under growth-rate inhibition curve [4] | area under growth-rate inhibition curve [5] | area under growth-rate inhibition curve [6] |
| --- | --- | --- | --- | --- | --- | --- |
| Cl.NC12CC3CC(CC(C3)C1)C2 [Amantadine HCl] | 1.05 | 1.03 | 1.02 | 1.05 | 1.05 | 1.08 |
| Cc1ccc(OCC(O)C(C)NC(C)C)c2c1CCC2.[Cl-].[H+] (stereo not given) | 1.07 | 1.06 | 1.05 | 1.04 | 1.01 | 1.11 |
| CN1CCc2cccc3c2[C@H]1Cc1ccc(O)c(O)c1-3.[Cl-].[H+] [(R)-(-)-Apomorphine hydrochloride] | 1.04 | 1.03 | 0.977 | 0.933 | 0.965 | 0.963 |
| Cc1nn(-c2ccccc2)c(C)c1C=NN1CCN(Cc2ccccc2)CC1 [SANT-1] | 1.05 | 0.992 | 1.02 | 0.98 | 1.04 | 1.08 |
| CN1CCC(=C2c3ccccc3CCn3c(C=O)cnc32)CC1 [Alcaftadine] | 1.06 | 1.04 | 1.03 | 1 | 1.02 | 1.04 |
| O=c1[nH]c2ccccc2n1CCCN1CCC(n2c(=O)[nH]c3cc(Cl)ccc32)CC1 [Domperidone] | 1.04 | 1.01 | 0.926 | 0.993 | 0.962 | 1 |
| CCOC(=O)[C@H](CCc1ccccc1)N[C@H]1CCCN2CCC[C@@H](C(=O)O)N2C1=O.O [Cilazapril Monohydrate] | 1.07 | 1.03 | 1.04 | 1.04 | 1.04 | 1.1 |
| Br.COc1ccc2c(c1)[C@@]13CCCCC1C(C2)N(C)CC3 (stereo not given in full) [Dextromethorphan hydrobromide] | 1.06 | 1.04 | 1.03 | 1.01 | 1.02 | 1.04 |
| CC(C)(C)NCC(O)COc1cccc2c1CCC(=O)N2.[Cl-].[H+] (stereo not given) [Carteolol HCl] | 1.1 | 1.04 | 1.03 | 1.05 | 1.04 | 1.11 |
| O=C(O)C=CC(=O)O.OCCOCCN1CCN(C2=Nc3ccccc3Sc3ccccc32)CC1.OCCOCCN1CCN(C2=Nc3ccccc3Sc3ccccc32)CC1 [Quetiapine Fumarate] | 1.07 | 1.02 | 1.02 | 1.03 | 1.04 | 1.07 |
| Cc1ccc(/C(=C\CN2CCCC2)c2ccccn2)cc1.Cl [trans-Triprolidine hydrochloride] | 1.05 | 1.03 | 1.03 | 1.03 | 1.03 | 1.05 |
| CC(C)(c1ccc(OCC(O)CO)cc1)c1ccc(OCC(O)CCl)cc1 (stereo not drawn) [EPI-001] | 1.07 | 1.05 | 1.01 | 0.993 | 1.01 | 1.07 |
| OCCOCCN1CCN(C(c2ccccc2)c2ccc(Cl)cc2)CC1.[Cl-].[Cl-].[H+].[H+] (stereo not given) [Hydroxyzine 2HCl] | 1.05 | 1.01 | 1.04 | 1.08 | 0.995 | 1.1 |
| Nc1ncnc2c1c(I)cn2[C@@H]1O[C@H](CO)[C@H](O)C1O (stereo not given in full) [5-Iodotubercidin] | 0.627 | 0.705 | 0.73 | 0.676 | 0.632 | 0.673 |
| C[C@]12CC[C@@H]3c4ccc(O)cc4CC[C@H]3[C@@H]1CCC2=O [Estrone] | 1.05 | 1.03 | 1 | 1.07 | 1.02 | 1.08 |
| COc1ccccc1Oc1c(NS(=O)(=O)c2ccc(C(C)(C)C)cc2)nc(-c2ncccn2)nc1OCCO.O [Bosentan Hydrate] | 1.06 | 1.04 | 1.01 | 1.04 | 1.01 | 1.09 |
| C[N+](C)(C)CCCCCCCCCC[N+](C)(C)C.[Br-].[Br-] [Decamethonium Bromide] | 1.04 | 1.04 | 1.03 | 1.06 | 1.03 | 1.1 |
| CNCCCC12CCC(c3ccccc31)c1ccccc12.[Cl-].[H+] [Maprotiline HCl] | 1.02 | 0.967 | 0.96 | 0.984 | 0.982 | 1.02 |
| C[C@]12CCC(=O)C=C1CC[C@H]1[C@@H]3CC[C@@](C)(O)[C@@]3(C)C[C@H](O)[C@@]12F [Fluoxymesterone] | 1.03 | 0.995 | 1.04 | 0.937 | 1.01 | 0.955 |
| Cl.O=C1CC[C@@]2(O)[C@H]3Cc4ccc(O)c5c4[C@@]2(CCN3CC2CC2)[C@H]1O5 [Naltrexone HCl] | 1.06 | 1.03 | 1.04 | 1.05 | 1.05 | 1.09 |
| CN[C@H](CC(=O)O)C(=O)O [NMDA (N-Methyl-D-aspartic acid)] | 1.08 | 1.04 | 1.04 | 1.08 | 1.07 | 1.09 |
| CCN(CC)CCOc1ccc(C(=C(Cl)c2ccccc2)c2ccccc2)cc1.O=C(O)CC(O)(CC(=O)O)C(=O)O [Clomifene citrate] | 0.941 | 0.915 | 0.94 | 0.796 | 0.914 | 0.876 |
| CN1CC2c3ccccc3Oc3ccc(Cl)cc3C2C1.O=C(O)C=CC(=O)O (stereo not given) [Asenapine] | 0.993 | 1.02 | 0.959 | 1.01 | 0.975 | 1.06 |
| CN(C)C(=O)C(CCN1CCC(O)(c2ccc(Cl)cc2)CC1)(c1ccccc1)c1ccccc1.[Cl-].[H+] [Loperamide HCl] | 1 | 1.03 | 0.911 | 0.882 | 0.943 | 0.94 |
| COc1ccccc1N1CCN(CCN2C(=O)CC3(CCCC3)CC2=O)CC1.[Cl-].[Cl-].[H+].[H+] [BMY 7378] | 1.1 | 1.03 | 1.02 | 1.03 | 0.982 | 1.11 |
